Counter-ions that a name gives are not always drawn. Calls of active or inactive are those of the source.
What was measured:
[1] = biological target: T1, Delta-type opioid receptor (Homo sapiens, UniProt P41143); experiment: HTS Image-Based Screen for Antagonists of the DOR Receptor. [Related pubchem assays (depositor defined):AID1777, AID1785, AID1786, AID2133]; type: functional
Mu-type opioid receptor = Mu-type opioid receptor (Homo sapiens, UniProt P35372); experiment: HTS Image-Based Screen for Agonists of the MOR Receptor. [Related pubchem assays (depositor defined):AID1777, AID1785, AID1786, AID2133]; type: functional;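 note: imaging of beta-arrestin GFP recruitment into spots after receptor activation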
[2] = biological target: T1, Delta-type opioid receptor; experiment: HTS Image-Based Screen for Agonists of the DOR Receptor. [Related pubchem assays (depositor defined):AID1777, AID1786, AID2133]; type: functional
[3] = biological target: T2, Kappa-type opioid receptor (Homo sapiens, UniProt P41145); type: functional
[4] = biological target: T2, Kappa-type opioid receptor; type: functional; remark: listed apart in the source
[5] = biological target: Eukaryotic translation initiation factor 4E (Mus musculus, UniProt P63073); experiment: blockers of eIF4G binding by eIF4E – biochemical, TR-FRET, dose response (AID 855); type: functional;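 note: potency for disrupting eIF4E binding to eIF4GI seen as loss of FRET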
[6] = biological target: G-protein coupled receptor 35 (Homo sapiens, UniProt Q9HC97); experiment: inhibition of zaprinast-stimulated GPR35 beta-arrestin translocation – imaging, U2OS, beta-arrestin-GFP, zaprinast agonist, primary screen (AID 2058); type: functional;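 note: antagonist potency meaning inhibition of agonist-induced arrestin redistribution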
[7] = biological target: T3, Microphthalmia-associated transcription factor (Homo sapiens, UniProt O75030); experiment: reducers of TRPM1 reporter luminescence, concentration series – cell-based, SK-MEL-5, cherry-picked, set 3, MITF inhibitor project, dose response (AID 493073); type: functional;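 note: SK-MEL-5 melanoma cells with luciferase driven by the MITF target TRPM1 promoter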
T3 sequence (O75030 whole entry): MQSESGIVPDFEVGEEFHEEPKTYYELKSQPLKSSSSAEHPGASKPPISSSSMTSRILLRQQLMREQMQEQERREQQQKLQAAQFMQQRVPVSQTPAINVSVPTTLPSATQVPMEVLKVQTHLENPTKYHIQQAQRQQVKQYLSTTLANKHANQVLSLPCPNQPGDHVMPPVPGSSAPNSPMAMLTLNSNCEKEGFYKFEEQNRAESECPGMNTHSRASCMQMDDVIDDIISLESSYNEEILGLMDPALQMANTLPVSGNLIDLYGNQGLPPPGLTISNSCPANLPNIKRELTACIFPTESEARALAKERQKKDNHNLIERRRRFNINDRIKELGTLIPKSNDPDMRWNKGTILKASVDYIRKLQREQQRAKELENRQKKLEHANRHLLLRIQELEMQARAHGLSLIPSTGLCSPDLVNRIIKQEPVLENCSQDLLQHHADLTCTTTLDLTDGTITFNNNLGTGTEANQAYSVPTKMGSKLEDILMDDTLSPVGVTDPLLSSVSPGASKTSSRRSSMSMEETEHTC

[8] = biological target: T4, DNA repair protein RAD52 homolog (Homo sapiens, UniProt P43351); type: functional, biochemical
T4 sequence (P43351 whole entry): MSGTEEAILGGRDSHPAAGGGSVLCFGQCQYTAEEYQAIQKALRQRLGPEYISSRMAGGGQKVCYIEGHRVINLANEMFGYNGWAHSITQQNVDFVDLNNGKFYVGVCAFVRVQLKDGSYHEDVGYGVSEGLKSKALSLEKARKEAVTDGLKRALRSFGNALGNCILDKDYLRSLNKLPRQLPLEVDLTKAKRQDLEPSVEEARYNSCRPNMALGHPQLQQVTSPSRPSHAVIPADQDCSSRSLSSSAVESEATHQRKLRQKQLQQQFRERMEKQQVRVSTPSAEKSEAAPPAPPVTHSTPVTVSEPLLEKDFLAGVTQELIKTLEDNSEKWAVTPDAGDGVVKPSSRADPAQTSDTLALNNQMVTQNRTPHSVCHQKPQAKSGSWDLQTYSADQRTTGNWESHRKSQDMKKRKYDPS

[9] = Luminescence Cell Based Dose Confirmation HTS to Identify Activators of 5'UTR Stem-Loop Driven Alpha-Synuclein mRNA Translation in H4 Neuroglioblastoma Cells. [Related pubchem assays (depositor defined):AID1813, AID1829]; type: functional; conditions: Homo sapiens
[10] = biological target: T5, Small ubiquitin-related modifier 1 (Homo sapiens, UniProt P63165); experiment: SUMO1 protein interaction blockers, potency – biochemical, fluorescence polarization, uHTS hits, dose response (AID 624382); type: functional; conditions: read-out: IC50_Mean
[11] = biological target: T5, Small ubiquitin-related modifier 1; experiment: SUMO1 protein-protein binding blockers, potency – biochemical, FRET, dose response (AID 624383); type: functional; conditions: read-out: IC50_Mean
[12] = luciferase reporter signal suppression in cells – H4 neuroglioma cells, luminescence, dose response (AID 1990); type: functional, cell-based
[13] = Luminescence Cell-Based Dose Response HTS to Identify Inhibitors of 5'UTR Stem-Loop Driven Prion Protein mRNA Translation in H4 Neuroglioblastoma Cells. [Related pubchem assays: 1827 (Project Summary), 1813 (Primary HTS)]; type: functional
[14] = alpha-synuclein stem-loop luciferase translation blockers – H4 neuroglioma cells, luminescence, confirmation (AID 1988); type: functional, cell-based
[15] = biological target: G-protein coupled receptor 55 (Homo sapiens, UniProt Q9Y2T6); experiment: inhibition of LPI-stimulated GPR55 beta-arrestin translocation – imaging, U2OS, beta-arrestin-GFP, LPI agonist, primary screen (AID 2013); type: functional;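 note: antagonist potency measured as reduced agonist-driven arrestin aggregation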
[16] = HPDE-C7 pancreatic duct cell viability loss – fluorescence, HTS (AID 430); type: functional, cell-based; conditions: Homo sapiens
[17] = Trypanosoma cruzi growth suppression in host cells – NIH3T3 host cells, beta-gal luminescence, confirmation (AID 2044); type: functional, cell-based;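 note: intracellular parasites grown in NIH/3T3 mouse fibroblasts as host cells; luminescent beta-galactosidase reporter signal from transgenic T. cruzi replicating inside host cells; inhibitors lower the luminescence signal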
[18] = viability loss of HPDE-C7K cells – cell-based, fluorescence, HTS, primary screen (AID 431); type: functional; conditions: Homo sapiens
[19] = NIH3T3 cell viability loss – ATP luminescence, mouse fibroblasts, counter-screen, dose response (AID 2010); type: functional, cell-based;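 note: cells exposed to compound for about 90 hours before reading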
Saccharomyces cerevisiae = experiment: S. cerevisiae Caspase-1/ASC signal blockers IC50, NALP1 inhibitor project selectivity test (AID 488863); type: functional, organism-based
[20] = biological target: T6, Ubiquitin-conjugating enzyme E2 N (Homo sapiens, UniProt P61088); type: functional;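 note: Dose-response confirmation in a TR-FRET assay detecting UBC13-driven polyubiquitin chain formation, inhibition measured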
T6 sequence (P61088 whole entry): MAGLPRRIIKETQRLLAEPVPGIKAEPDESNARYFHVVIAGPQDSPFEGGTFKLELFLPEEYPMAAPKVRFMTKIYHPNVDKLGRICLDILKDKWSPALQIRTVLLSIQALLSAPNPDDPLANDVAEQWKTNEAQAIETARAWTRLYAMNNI

[21] = biological target: NACHT, LRR and PYD domains-containing protein 1 (Homo sapiens, UniProt Q9C000); experiment: NALP1 inhibitors in yeast, dose response, luminescent (AID 488860); type: functional
INS1 = experiment: INS-1E survival protection against cytokine death – cell-based, luminescence, retest, dose response (AID 449756); type: functional; conditions: Rattus norvegicus;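 note: cell death triggered by IL-1 beta plus TNF-alpha plus IFN-gamma mixture; protective hits raise ATP signal compared with cytokine alone wells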
[22] = CellTiter-Glo luminescence survival assay, SW480 colon tumor line, concentration-response curve, half-maximal inhibitory concentration (AID 1117338); type: functional
[23] = RKO cell viability reduction, dose response, CellTiter-Glo luminescence (AID 1117322); type: functional
[24] = cytotoxicity toward HCT116 cells – cell-based, CellTiter-Glo luminescence, IC50, dose response (AID 1117332); type: functional; conditions: HCT-116
[25] = SNU-C1 cell viability reduction, dose response, CellTiter-Glo luminescence (AID 1117323); type: functional, cell-based
[26] = cytotoxicity toward Colo320 cells – cell-based, CellTiter-Glo luminescence, IC50, dose response (AID 1117334); type: functional; conditions: COLO 320
[27] = cytotoxicity toward HT-29 cells – cell-based, CellTiter-Glo luminescence, IC50, dose response (AID 1117330); type: functional
[28] = Reduced DLD-1 viability, concentration-response, CellTiter-Glo luminescence (AID 1117352); type: functional
[29] = HCT116 cell viability decrease, GSK3B pretreatment – CellTiter-Glo, IC50, dose response (AID 1117339); type: functional; conditions: HCT-116

T2 sequence (P41145 whole entry): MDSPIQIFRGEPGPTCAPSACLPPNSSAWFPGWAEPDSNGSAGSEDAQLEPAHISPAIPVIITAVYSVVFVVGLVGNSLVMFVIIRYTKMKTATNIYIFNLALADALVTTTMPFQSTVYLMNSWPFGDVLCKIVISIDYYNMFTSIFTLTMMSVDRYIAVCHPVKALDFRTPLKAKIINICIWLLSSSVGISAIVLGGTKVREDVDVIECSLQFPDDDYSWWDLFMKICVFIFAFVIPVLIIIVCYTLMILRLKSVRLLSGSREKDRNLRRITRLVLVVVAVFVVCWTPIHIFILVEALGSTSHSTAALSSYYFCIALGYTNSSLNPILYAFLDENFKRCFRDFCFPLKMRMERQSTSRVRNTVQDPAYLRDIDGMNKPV
T1 sequence (P41143 whole entry): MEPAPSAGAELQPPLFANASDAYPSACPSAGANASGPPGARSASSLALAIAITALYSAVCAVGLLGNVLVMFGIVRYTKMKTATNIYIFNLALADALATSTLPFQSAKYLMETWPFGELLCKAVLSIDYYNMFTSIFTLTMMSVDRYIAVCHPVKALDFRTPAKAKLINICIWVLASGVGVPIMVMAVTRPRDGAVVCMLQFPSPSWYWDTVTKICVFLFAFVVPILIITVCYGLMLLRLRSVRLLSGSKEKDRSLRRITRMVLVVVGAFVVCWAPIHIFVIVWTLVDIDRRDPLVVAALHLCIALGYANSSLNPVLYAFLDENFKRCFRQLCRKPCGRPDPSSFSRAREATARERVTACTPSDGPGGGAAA
T5 sequence (P63165 whole entry): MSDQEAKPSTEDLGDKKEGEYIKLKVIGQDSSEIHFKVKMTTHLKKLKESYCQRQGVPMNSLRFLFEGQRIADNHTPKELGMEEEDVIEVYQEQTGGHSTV
Chain of G-protein coupled receptor 35 (Q9HC97 whole entry): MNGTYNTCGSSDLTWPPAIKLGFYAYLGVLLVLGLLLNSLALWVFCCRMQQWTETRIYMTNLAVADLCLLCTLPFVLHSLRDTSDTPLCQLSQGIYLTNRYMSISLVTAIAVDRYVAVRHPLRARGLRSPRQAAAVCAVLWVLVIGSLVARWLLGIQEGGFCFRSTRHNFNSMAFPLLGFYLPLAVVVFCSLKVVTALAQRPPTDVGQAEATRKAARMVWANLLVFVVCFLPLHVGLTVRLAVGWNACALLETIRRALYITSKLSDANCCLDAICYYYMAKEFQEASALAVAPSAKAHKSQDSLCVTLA
Chain of Eukaryotic translation initiation factor 4E (P63073 whole entry): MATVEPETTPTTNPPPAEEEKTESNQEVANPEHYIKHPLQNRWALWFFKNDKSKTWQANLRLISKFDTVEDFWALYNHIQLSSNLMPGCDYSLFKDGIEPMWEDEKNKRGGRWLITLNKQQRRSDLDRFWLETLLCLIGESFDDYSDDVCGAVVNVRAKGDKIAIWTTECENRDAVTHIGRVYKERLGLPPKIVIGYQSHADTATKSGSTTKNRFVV
Chain of G-protein coupled receptor 55 (Q9Y2T6 whole entry): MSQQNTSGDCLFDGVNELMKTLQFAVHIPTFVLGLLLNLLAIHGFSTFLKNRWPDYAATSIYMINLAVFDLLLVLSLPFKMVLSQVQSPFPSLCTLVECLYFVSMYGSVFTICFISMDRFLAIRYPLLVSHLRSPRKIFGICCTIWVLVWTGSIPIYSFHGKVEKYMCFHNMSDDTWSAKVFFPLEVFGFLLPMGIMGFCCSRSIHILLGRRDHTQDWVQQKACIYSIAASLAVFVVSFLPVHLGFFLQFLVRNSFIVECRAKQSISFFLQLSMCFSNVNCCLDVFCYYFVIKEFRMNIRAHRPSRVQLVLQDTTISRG
Chain of Mu-type opioid receptor (P35372 whole entry): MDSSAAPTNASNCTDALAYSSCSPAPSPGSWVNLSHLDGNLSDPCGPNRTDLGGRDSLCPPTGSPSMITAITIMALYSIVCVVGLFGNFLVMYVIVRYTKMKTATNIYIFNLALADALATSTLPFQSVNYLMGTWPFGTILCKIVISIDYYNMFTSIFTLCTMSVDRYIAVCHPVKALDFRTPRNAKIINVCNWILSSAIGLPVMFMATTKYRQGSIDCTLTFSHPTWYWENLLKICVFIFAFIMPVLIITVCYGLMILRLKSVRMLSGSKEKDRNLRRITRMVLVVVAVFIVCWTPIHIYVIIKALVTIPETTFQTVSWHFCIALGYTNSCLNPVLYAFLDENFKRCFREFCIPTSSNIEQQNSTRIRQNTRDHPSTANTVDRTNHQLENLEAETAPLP
Chain of NACHT, LRR and PYD domains-containing protein 1 (Q9C000 1-1212 limits assumed): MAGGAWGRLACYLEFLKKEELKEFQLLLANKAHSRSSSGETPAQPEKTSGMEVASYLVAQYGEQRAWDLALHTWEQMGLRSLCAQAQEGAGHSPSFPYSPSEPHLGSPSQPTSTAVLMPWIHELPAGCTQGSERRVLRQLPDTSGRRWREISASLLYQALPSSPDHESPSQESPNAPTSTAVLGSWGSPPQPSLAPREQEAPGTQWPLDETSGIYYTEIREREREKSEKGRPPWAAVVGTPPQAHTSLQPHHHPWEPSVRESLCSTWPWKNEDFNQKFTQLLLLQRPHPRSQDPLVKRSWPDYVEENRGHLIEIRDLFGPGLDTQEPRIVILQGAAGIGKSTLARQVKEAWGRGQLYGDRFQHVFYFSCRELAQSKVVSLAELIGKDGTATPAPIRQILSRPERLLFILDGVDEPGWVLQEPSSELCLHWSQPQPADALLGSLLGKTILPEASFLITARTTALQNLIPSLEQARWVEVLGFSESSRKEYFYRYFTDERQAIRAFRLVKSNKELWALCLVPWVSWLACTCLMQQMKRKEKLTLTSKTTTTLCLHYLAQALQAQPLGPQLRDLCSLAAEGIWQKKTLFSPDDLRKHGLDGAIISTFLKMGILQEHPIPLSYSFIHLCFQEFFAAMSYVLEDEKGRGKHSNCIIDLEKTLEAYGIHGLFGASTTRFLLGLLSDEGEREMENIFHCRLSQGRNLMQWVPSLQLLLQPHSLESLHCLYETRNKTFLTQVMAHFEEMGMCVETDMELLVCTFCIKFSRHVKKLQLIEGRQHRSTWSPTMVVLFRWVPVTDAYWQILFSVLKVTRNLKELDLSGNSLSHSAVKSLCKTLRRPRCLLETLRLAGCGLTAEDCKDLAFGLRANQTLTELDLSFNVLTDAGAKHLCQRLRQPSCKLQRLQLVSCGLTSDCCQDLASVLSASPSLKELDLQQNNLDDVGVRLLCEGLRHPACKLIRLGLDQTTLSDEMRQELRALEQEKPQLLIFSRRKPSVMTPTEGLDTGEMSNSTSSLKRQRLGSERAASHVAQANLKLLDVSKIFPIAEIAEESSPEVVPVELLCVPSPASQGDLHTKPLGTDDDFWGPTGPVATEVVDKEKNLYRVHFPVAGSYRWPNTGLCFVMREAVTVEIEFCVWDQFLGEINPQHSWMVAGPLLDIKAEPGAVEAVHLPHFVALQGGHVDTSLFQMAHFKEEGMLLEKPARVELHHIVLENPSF
Chain of NACHT, LRR and PYD domains-containing protein 1 (Q9C000 1213-1473 limits assumed): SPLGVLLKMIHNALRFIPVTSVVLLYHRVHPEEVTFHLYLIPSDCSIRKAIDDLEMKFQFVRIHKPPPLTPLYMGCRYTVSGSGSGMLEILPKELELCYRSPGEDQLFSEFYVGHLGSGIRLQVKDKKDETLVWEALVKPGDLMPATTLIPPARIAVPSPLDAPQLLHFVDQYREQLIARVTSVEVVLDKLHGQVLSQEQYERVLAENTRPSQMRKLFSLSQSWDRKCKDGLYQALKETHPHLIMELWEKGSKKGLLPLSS

In the case of `Cc1ccc(C)c(N2CCN(C(=O)C(Cc3ccccc3)n3cccc3)CC2)c1` (stereo not drawn), the IC50 [1] is reported as > 32 µM (inactive), the EC50 (Mu-type opioid receptor) is reported as > 32 µM (inactive) and the EC50 [2] is reported as > 32 µM (inactive). For the same compound, the EC50 [3] was 4.27 µM, the EC50 [4] was 10.5 µM and the IC50 [5] was > 64 µM (inactive).

With `CN(C)CCCNC(=O)/C(=C\c1ccc(-c2ccc(Br)cc2)o1)NC(=O)c1ccccc1` the IC50 [6] was > 32 µM (inactive), the AC50 [7] was 7.51 µM (active) and the AC50 [8] was 15.6 µM (active).

For `COc1ccc(Cl)cc1Nc1nnc(-c2ccncc2)s1`, the EC50 [9] was 73.5 µM (active), the IC50 [10] was > 66.6 µM (inactive) and the IC50 [11] was 4.83 µM (active).

For `C1CCC(C(CC2CCCCN2)C2CCCCC2)CC1` (stereo not drawn) [PERHEXILINE MALEATE], the EC50 [12] was > 120 µM (not active), the EC50 [13] was > 120 µM (not active) and the EC50 [14] was 8.95 µM (active). The IC50 [15] was 3.19 µM (active), the EC50 [16] was 11.7 µM (active) and the EC50 [17] was 3.13 µM (active). The EC50 [18] was 10.8 µM (active), the EC50 [19] was 14.2 µM (active) and the IC50 (Saccharomyces cerevisiae) was 15.9 µM (active). The IC50 [20] was > 20 µM (inactive), the IC50 [21] was 12.9 µM (active) and the AC50 [7] was 18.8 µM (active). The AC50 (INS1) was 6.42 µM (active), the IC50 [22] was 5.76 µM (inactive) and the IC50 [23] was 7.85 µM (inactive). The IC50 [24] was > 20 µM (inactive), the IC50 [25] was 2.48 µM (active) and the IC50 [26] was 8.86 µM (inactive). For the same compound, the IC50 [27] was 6.87 µM (inactive), the IC50 [28] was > 20 µM (inactive) and the IC50 [29] was 7.42 µM (inactive).
